Measured values published in patent US9802918B2, “Pyridineamine compounds useful as Pim kinase inhibitors” (Incyte Corporation, priority 2015, dated 2017).

Experiments:
Type in all cases: biochemical
Pim-3 = Pim-3 (Homo sapiens (Human), UniProt Q86V86); assay: Pim-3 kinase assay; conditions: 1 mM ATP; read-out: Pim3 IC50
Outline: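 Human Pim-3 at 1.25 pM phosphorylated […] biotin-BAD peptide with 1 mM ATP for 1 h at 25° C, in pH 7.5 Tris buffer with 5 mM MgCl2 and 5 mM DTT. Reactions were stopped with EDTA buffer containing phospho-Bad (Ser112) antibody and AlphaScreen donor/acceptor beads. Plates were read after 1 h dark incubation at room temperature.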

Pim-1 = Pim-1 (Homo sapiens (Human), UniProt P11309); assay: Pim-1 kinase assay; conditions: 1 mM ATP; read-out: Pim1 IC50
Description: Supplementation of the STOP buffer with beads and stopping the reactions were done under reduced light. Prior to the stopping reactions STOP buffer with beads was preincubated for 1 h in the dark at room temperature. After stopping the reactions, plates were incubated for 1 h in the dark at room temperature before reading on a PHERAstar FS plate reader (BMG Labtech) under reduced light.

Pim-2 = Pim-2 (Homo sapiens (Human), UniProt Q9P1W9); assay: Pim-2 kinase assay; conditions: 1 mM ATP; read-out: Pim2 IC50
Outline: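 Pim-2 (1 nM) with fluorescein-CREBtide ([…]) and 1 mM ATP in Tris pH 7.5, MgCl2, DTT buffer, 2 h at 25 °C. Stopped with EDTA plus Tb-anti-CREB pSer133 antibody; phosphorylation read by TR-FRET after 30 min.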

Pim-1, sequence (P11309 whole entry): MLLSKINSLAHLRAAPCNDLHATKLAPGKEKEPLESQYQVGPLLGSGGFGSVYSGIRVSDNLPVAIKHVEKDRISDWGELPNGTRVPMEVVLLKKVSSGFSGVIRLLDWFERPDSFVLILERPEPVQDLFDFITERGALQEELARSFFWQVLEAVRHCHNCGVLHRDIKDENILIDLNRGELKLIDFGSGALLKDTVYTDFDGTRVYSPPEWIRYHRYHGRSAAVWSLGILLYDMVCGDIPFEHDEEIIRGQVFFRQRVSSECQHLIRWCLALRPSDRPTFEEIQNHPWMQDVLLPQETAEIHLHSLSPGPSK
Pim-2, sequence (Q9P1W9 whole entry): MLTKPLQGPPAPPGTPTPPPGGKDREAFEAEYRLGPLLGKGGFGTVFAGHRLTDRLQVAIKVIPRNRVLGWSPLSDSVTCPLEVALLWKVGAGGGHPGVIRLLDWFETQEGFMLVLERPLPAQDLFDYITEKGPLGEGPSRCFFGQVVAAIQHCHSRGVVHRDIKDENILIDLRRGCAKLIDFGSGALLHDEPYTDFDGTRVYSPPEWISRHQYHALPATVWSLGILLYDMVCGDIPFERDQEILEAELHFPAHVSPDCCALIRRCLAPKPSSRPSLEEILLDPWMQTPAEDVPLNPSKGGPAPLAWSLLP

SMILES | IC50 (Pim-3) [nM] | IC50 (Pim-1) [nM] | IC50 (Pim-2) [nM]
C[C@H]1CN(c2ccncc2NCc2ccc(F)c(-c3c(F)cccc3F)c2)C[C@@H](N)[C@@H]1O [Example 24B, (3R,4R,5S)-3-Amino-5-methyl-1-(3-{[(2′,6,6′-trifluorobiphenyl-3-yl)methyl]amino}pyridin-4-yl)piperidin-4-ol] | ≤ 10 | < 10 | 100 to 1000
C[C@H]1CN(c2ccncc2NCc2ccc(F)c(-c3c(F)cc(CN4CC[C@@H](C#N)C4)cc3F)n2)C[C@@H](N)[C@@H]1O [Example 44, (R)-1-(4-(6-((4-((3R,4R,5S)-3-Amino-4-hydroxy-5-methylpiperidin-1-yl)pyridin-3-ylamino)methyl)-3-fluoropyridin-2-yl)-3,5-difluorobenzyl)pyrrolidine-3-carbonitrile] | ≤ 10 | < 10 | ≤ 100
C[C@H]1CN(c2ccncc2NCc2ccc(F)c(-c3c(F)ccc(C4(O)CC4)c3F)n2)C[C@@H](N)[C@@H]1O [Example 9, (3R,4R,5S)-3-Amino-1-(3-(((6-(2,6-difluoro-3-(1-hydroxycyclopropyl)phenyl)-5-fluoropyridin-2-yl)methyl)amino)pyridin-4-yl)-5-methylpiperidin-4-ol] | ≤ 10 | < 10 | 100 to 1000
N[C@H]1C[C@@H](C(F)(F)F)CN(c2ccncc2NCc2ccc(F)c(-c3c(F)cc(C4CCOCC4)cc3F)n2)C1 [Example 65, 4-((3S,5R)-3-Amino-5-(trifluoromethyl)piperidin-1-yl)-N-((6-(2,6-difluoro-4-(tetrahydro-2H-pyran-4-yl)phenyl)-5-fluoropyridin-2-yl)methyl)pyridin-3-amine] | ≤ 10 | < 10 | ≤ 100
C[C@@H]1C[C@H](N)CN(c2ccncc2NCc2ccc(F)c(-c3c(F)cc(N4CCCC(F)C4)cc3F)n2)C1 (stereo partly drawn) [Example 71, 4-[(3S,5R)-3-Amino-5-methylpiperidin-1-yl]-N-({6-[2,6-difluoro-4-(3-fluoropiperidin-1-yl)phenyl]-5-fluoropyridin-2-yl}methyl)pyridin-3-amine] | ≤ 10 | < 10 | ≤ 100
C[C@@H]1C[C@H](N)CN(c2ccncc2NCc2ccc(F)c(-c3c(F)cc(C4(O)CCOCC4)cc3F)n2)C1 [Example 6, 4-(4-(6-((4-((3S,5R)-3-Amino-5-methylpiperidin-1-yl)pyridin-3-ylamino)methyl)-3-fluoropyridin-2-yl)-3,5-difluorophenyl)tetrahydro-2H-pyran-4-ol] | ≤ 10 | < 10 | ≤ 100
C[C@H]1CN(c2ccncc2NCc2ccc(F)c(-c3c(F)cc(CN4CC[C@@H](O)C4)cc3F)n2)C[C@@H](N)[C@@H]1O [Example 42, (3R,4R,5S)-3-Amino-1-(3-(((6-(2,6-difluoro-4-(((R)-3-hydroxypyrrolidin-1-yl)methyl)phenyl)-5-fluoropyridin-2-yl)methyl)amino)pyridin-4-yl)-5-methylpiperidin-4-ol] | ≤ 10 | < 10 | ≤ 100
C[C@H]1CN(c2ccncc2NCc2ccc(F)c(-c3c(F)cc(C4CCOCC4)cc3F)n2)C[C@@H](N)[C@@H]1O [Example 63, (3R,4R,5S)-3-Amino-1-{3-[({6-[2,6-difluoro-4-(tetrahydro-2H-pyran-4-yl)phenyl]-5-fluoropyridin-2-yl}methyl)amino]pyridin-4-yl}-5-methylpiperidin-4-ol] | ≤ 10 | < 10 | ≤ 100
C[C@@H]1C[C@H](N)CN(c2ccncc2NCc2ccc(F)c(-c3c(F)cc(CO)cc3F)n2)C1 [Example 36, (4-{6-[({4-[(3S,5R)-3-Amino-5-methylpiperidin-1-yl]pyridin-3-yl}amino)methyl]-3-fluoropyridin-2-yl}-3,5-difluorophenyl)methanol] | ≤ 10 | < 10 | ≤ 100
C[C@@H]1C[C@H](N)CN(c2ccncc2NCc2ccc3occ(-c4c(F)cc(CO)cc4F)c3n2)C1 [Example 99, (4-(5-((4-((3S,5R)-3-amino-5-methylpiperidin-1-yl)pyridin-3-ylamino)methyl)furo[3,2-b]pyridin-3-yl)-3,5-difluorophenyl)methanol] | ≤ 10 | < 10 | ≤ 100
C[C@@H]1C[C@H](N)CN(c2ccncc2NCc2ccc(F)c(-c3ccccc3F)n2)C1 [Example 23, 4-((3S,5R)-3-Amino-5-methylpiperidin-1-yl)-N-((5-fluoro-6-(2-fluorophenyl)pyridin-2-yl)methyl)pyridin-3-amine] | ≤ 10 | < 10 | 100 to 1000
C[C@@H]1C[C@H](N)CN(c2ccncc2NCc2ccc(F)c(-c3c(F)cc(CN4CC[C@H](O)C4)cc3F)n2)C1 [Example 52, (S)-1-(4-(6-((4-((3S,5R)-3-Amino-5-methylpiperidin-1-yl)pyridin-3-ylamino)methyl)-3-fluoropyridin-2-yl)-3,5-difluorobenzyl)pyrrolidin-3-ol] | ≤ 10 | < 10 | ≤ 100
C[C@H]1CN(c2ccncc2NCc2ccc(F)c(-c3c(F)cc(OC4CCOCC4)cc3F)n2)C[C@@H](N)[C@@H]1O [Example 77, (3R,4R,5S)-3-Amino-1-{3-[({6-[2,6-difluoro-4-(tetrahydro-2H-pyran-4-yloxy)phenyl]-5-fluoropyridin-2-yl}methyl)amino]pyridin-4-yl}-5-methylpiperidin-4-ol] | ≤ 10 | < 10 | ≤ 100
C[C@@H]1C[C@H](N)CN(c2ccncc2NCc2ccc(F)c(-c3ccc4sccc4c3)n2)C1 [Example 85, 4-[(3S,5R)-3-Amino-5-methylpiperidin-1-yl]-N-{[6-(1-benzothien-5-yl)-5-fluoropyridin-2-yl]methyl}pyridin-3-amine] | ≤ 10 | < 10 | 100 to 1000
C[C@@H]1C[C@H](N)C[C@H](c2ccncc2NCc2ccc(F)c(-c3c(F)cccc3F)n2)C1 [Example 66, 4-[(1R,3S,5S)-3-Amino-5-methylcyclohexyl]-N-{[6-(2,6-difluorophenyl)-5-fluoropyridin-2-yl]methyl}pyridin-3-amine] | ≤ 10 | < 10 | 100 to 1000
C[C@@H]1C[C@H](N)CN(c2ccncc2NCc2ccc(F)c(-c3ccc(C#N)cc3F)n2)C1 [Example 84, 4-{6-[({4-[(3S,5R)-3-Amino-5-methylpiperidin-1-yl]pyridin-3-yl}amino)methyl]-3-fluoropyridin-2-yl}-3-fluorobenzonitrile] | ≤ 10 | < 10 | 100 to 1000
C[C@@H]1C[C@H](N)CN(c2ccncc2NCc2ccc(F)c(-c3c(F)cc(C4(O)CCOCC4)cc3F)c2)C1 [Example 27, 4-(5′-((4-((3S,5R)-3-Amino-5-methylpiperidin-1-yl)pyridin-3-ylamino)methyl)-2,2′,6-trifluorobiphenyl-4-yl)tetrahydro-2H-pyran-4-ol] | ≤ 10 | < 10 | 100 to 1000
C[C@H]1CN(c2ccncc2NCc2ccc3ccc(-c4ccn(C)c(=O)c4F)cc3n2)C[C@@H](N)[C@@H]1O [Example 107, 4-{2-[({4-[(3R,4R,5S)-3-Amino-4-hydroxy-5-methylpiperidin-1-yl]pyridin-3-yl}amino)methyl]quinolin-7-yl}-3-fluoro-1-methylpyridin-2(1H)-one] | ≤ 10 | < 10 | ≤ 100
C[C@H]1CN(c2ccncc2NCc2ccc(F)c(-c3c(F)cc(CN4CC[C@H](O)C4)cc3F)n2)C[C@@H](N)[C@@H]1O [Example 43, (3R,4R,5S)-3-Amino-1-(3-(((6-(2,6-difluoro-4-(((S)-3-hydroxypyrrolidin-1-yl)methyl)phenyl)-5-fluoropyridin-2-yl)methyl)amino)pyridin-4-yl)-5-methylpiperidin-4-ol] | ≤ 10 | < 10 | ≤ 100
COc1cc(F)c(-c2nc(CNc3cnccc3N3C[C@H](C)C[C@H](N)C3)ccc2F)c(F)c1 [Example 83, 4-[(3S,5R)-3-Amino-5-methylpiperidin-1-yl]-N-{[6-(2,6-difluoro-4-methoxyphenyl)-5-fluoropyridin-2-yl]methyl}pyridin-3-amine] | ≤ 10 | < 10 | ≤ 100
C[C@@H]1C[C@H](N)CN(c2ccncc2NCc2ccc3ccc(-c4ccc5c(c4)OCC5)cc3n2)C1 [Example 91, 4-[(3S,5R)-3-Amino-5-methylpiperidin-1-yl]-N-{[7-(2,3-dihydro-1-benzofuran-6-yl)quinolin-2-yl]methyl}pyridin-3-amine] | ≤ 10 | < 10 | 100 to 1000
C[C@@H]1C[C@H](N)CN(c2ccncc2NCc2ccc(F)c(-c3c(F)cc(C(C)(C)C#N)cc3F)n2)C1 [Example 24A, 2-(4-{6-[({4-[(3S,5R)-3-Amino-5-methylpiperidin-1-yl]pyridin-3-yl}amino)methyl]-3-fluoropyridin-2-yl}-3,5-difluorophenyl)-2-methylpropanenitrile] | ≤ 10 | < 10 | ≤ 100
C[C@@H]1C[C@H](N)CN(c2ccncc2NCc2nc(-c3c(F)cccc3F)c(F)cc2N)C1 [Example 108, 2-[({4-[(3S,5R)-3-Amino-5-methylpiperidin-1-yl]pyridin-3-yl}amino)methyl]-6-(2,6-difluorophenyl)-5-fluoropyridin-3-amine] | ≤ 10 | < 10 | ≤ 100
